Source: paper PMC5962653 (Frontiers in Microbiology, 2018)
≈ marks a conversion by molar mass, not a printed value. Like-named read-outs stand apart in the source and are kept apart here. Marks after values point to notes of the source that are not given here.

Tests used:
[1] = test system: K. pneumoniae Kp28, OXA-48 plus CTX-M-15 producer; assay: MIC by broth microdilution (agar dilution for fosfomycin); type: cell-based, Klebsiella pneumoniae; settings: supplement table, strain KPc28; for MIC: Klebsiella pneumoniae; for SIR, classification according to EUCAST definitions: EUCAST 2016 breakpoints, fosfomycin by agar dilution
Excerpt: (§1) Four genetically unrelated clinical isolates of CP-Kp were studied: Kp07, a VIM-1 ST 1603 clone producer ([Miro et al., 2013]); Kp21, which co-produced VIM-1 and the acquired AmpC type beta-lactamase DHA-1 ST 11 clone ([Miro et al., 2013]); Kp28, co-producing OXA-48 ST11 clone and the extended spectrum beta-lactamase (ESBL) CTX-M-15 ([Oteo et al., 2015]); and Kp29, co-producing KPC-3 ST512 clone with the broad spectrum beta-lactamases TEM-1 and SHV-11 ([Lopez-Cerero et al., 2014]), thereinafter VIM-1, VIM-1/DHA-1, OXA-48 plus CTX-M-15, and KPC-3 producers, respectively. Identification of these isolates was confirmed by a Microflex LT-MALDI Biotyper mass spectrometer (Bruker Daltonics GmbH, Bremen, Germany). The presence of carbapenemase genes, and genes coding for other beta-lactamases was confirmed by PCR and sequencing as described previously. The absence of genetic relation among the isolates was confirmed by PFGE analysis of chromosomal restriction fragments obtained after XbaI cleavage following the criteria of [Tenover et al. (1995)]. […] The antibiotic susceptibility profiles are included in the Supplementary Information.
(§2) MICs of antibiotics were determined by broth microdilution as recommended by the [Clinical and Laboratory Standards Institute [CLSI] (2012)], using Mueller Hinton broth II (MHB) (Becton Dickinson & Co., Sparks, MD, United States) and agar dilution method for fosfomycin. MIC results were interpreted according to the [European Committee on Antimicrobial Susceptibility Testing [EUCAST] (2016)]^1 breakpoints. Studies were performed in triplicate.

[2] = test system: K. pneumoniae Kp29, KPC-3 producer; assay: as above; type: cell-based, Klebsiella pneumoniae; settings: for MIC: Klebsiella pneumoniae
Excerpt: as §1, §2

[3] = test system: K. pneumoniae Kp07, VIM-1 producer; assay: as above; type: cell-based, Klebsiella pneumoniae; settings: supplement table, strain KPc07; for MIC: Klebsiella pneumoniae; for SIR, classification according to EUCAST definitions: EUCAST 2016 breakpoints, fosfomycin by agar dilution
Excerpt: as §1, §2

[4] = test system: K. pneumoniae Kp21, VIM-1/DHA-1 producer; assay: as above; type: cell-based, Klebsiella pneumoniae; settings: supplement table, strain KPc21; for MIC: Klebsiella pneumoniae; for SIR, classification according to EUCAST definitions: EUCAST 2016 breakpoints, fosfomycin by agar dilution
Excerpt: as §1, §2

[5] = Serum pharmacokinetics in healthy mice; settings: single ip dose (CMS 20 mg/kg; rifampin 25 mg/kg), LC-MS/MS, PKSOLVER
Procedure: (§7) Mice were housed in an individually ventilated cage system under specific pathogen-free conditions, and water and food supplied ad libitum. […] All procedures were performed under sodium thiopental (B. Braun Medical S.A., Spain) anesthesia, and all efforts were made to minimize suffering.
(§8) Blood samples were immediately centrifuged (4500 rpm, 15 min at 4°C), and serum samples stored at -80°C until the analysis. Both serum free and total antibiotic concentrations were measured using HPLC-tandem mass spectrometry (LC-MS/MS) ([Waters et al., 2008]; [Gobin et al., 2010]). Free fractions of the drugs were calculated as described previously ([Waters et al., 2008]; [Gonzalez et al., 2013]; [Cheah et al., 2015]).

[6] = test system: K. pneumoniae VIM-1/DHA-1 strain; type: in vivo; settings: CMS 20 mg/kg/8 h ip, rifampin 25 mg/kg/6 h ip, alone or combined; for Mice mortality (%) / Log10 cfu/g spleen (mean ±SD): 72 h, from 4 h post-inoculation; for Log10 cfu/g spleen (mean ±SD): ip MLD 8.94 log10 cfu/mL, at death or 72 h; for Bacteremia (%): qualitative blood cultures at death or 72 h
Procedure: (§3) A previously described murine peritoneal sepsis model was used ([Parra Millan et al., 2016]). Briefly, groups of un-anesthetized C57BL/6 mice were infected by ip injection of 0.5 mL of the Minimal Lethal Dose (MLD) of each strain, corresponding to (log10 cfu/mL): 8.97, 8.94 9.35, and 8.38 for VIM-1, VIM-1/DHA-1, OXA-48 plus CTX-M-15, and KPC-3 strains, respectively. Treatments were initiated 4 h post-inoculation. […] Afterward, mice were treated and monitored for 72 h. […] Samples were extracted and processed immediately after the death of mice; the survivor mice were sacrificed (sodium thiopental) at the 72 h. Aseptic thoracotomies were carried out, and blood samples were obtained for qualitative blood cultures; results were expressed as positive (≥1 cfu present in the plate) or negative. Spleens were aseptically extracted, weighed, and homogenized in sterile saline (Stomacher 80; Tekmar Co., Cincinnati, OH, United States) before quantitative cultures (log10 cfu/g) in Columbia agar with 5% sheep blood plates.
(§4) Mortality and bacteremia rates are expressed as percentages and bacterial tissue concentrations (log10 cfu/g) as means ±SD. The two-tailed Fisher’s test, analysis of variance (ANOVA), and the Dunnet and Tukey post hoc tests were used. A P < 0.05 was considered significant. The SPSS v22.0 statistical package was used (SPSS Inc).

[7] = test system: K. pneumoniae VIM-1 strain; type: in vivo; settings: CMS 20 mg/kg/8 h ip, rifampin 25 mg/kg/6 h ip, alone or combined; for Bacteremia (%): qualitative blood cultures at death or 72 h
Procedure: as §3, §4

[8] = test system: K. pneumoniae OXA-48 plus CTX-M-15 strain; type: in vivo; settings: for Bacteremia (%): blood cultures at death or 72 h; for Log10 cfu/g lung (mean ±SD): intratracheal 50 μl of 8.18 log10 cfu/mL, at death or 72 h
Procedure: A previously characterized murine pneumonia model was used ([Pachon-Ibanez et al., 2010]; [Docobo-Perez et al., 2012]; [Parra Millan et al., 2016]) with the OXA-48 plus CTX-M-15 strain, as OXA-48 is the most prevalent carbapenemase in Spain nowadays ([Palacios-Baena et al., 2016]). Anesthetized mice were infected intratracheally, using 50 μl of a final inoculum of 8.18 log10 cfu/mL. Therapies were initiated 4 h post-infection and treatment groups and dosages were the same as in the peritoneal sepsis model. Mice were treated and monitored over 72 h. After death or sacrifice of the mice at 72 h, blood and lungs samples were aseptically obtained and processed as detailed above.
as §4

[9] = test system: K. pneumoniae OXA-48 plus CTX-M-15 strain; assay: Murine peritoneal sepsis model; type: in vivo, C57BL/6 mice infected with Klebsiella pneumoniae; settings: CMS 20 mg/kg/8 h ip, rifampin 25 mg/kg/6 h ip, alone or combined; for Mice mortality (%) / Log10 cfu/g spleen (mean ±SD): 72 h, from 4 h post-inoculation; for Log10 cfu/g spleen (mean ±SD): ip MLD 9.35 log10 cfu/mL, at death or 72 h; for Bacteremia (%): qualitative blood cultures at death or 72 h
Procedure: as §3, §4

[10] = test system: K. pneumoniae VIM-1/DHA-1 producer; type: cell-based, Klebsiella pneumoniae; settings: colistin 2 mg/L (EUCAST breakpoint), rifampin 2 mg/L, alone or combined; inoculum 1 × 10^6 cfu/mL, 37°C, samples 0-24 h; three experiments
Procedure: (§5) (2016)]. […] Tubes were incubated at 37°C, with shaking, and samples were taken at 0, 1, 3, 6, and 24 h, serially diluted and plated using a spiral platter (Eddy Jet, IUL S.A., Barcelona, Spain). Bacterial colonies were counted using an automatic counter (Flash & Go, IUL S.A., Barcelona, Spain) ([Pournaras et al., 2011]; [Souli et al., 2011]). Experiments were performed three times on separate occasions. […] Bactericidal activities of single antibiotics or combination were defined as a decrease ≥ 3 log10 cfu/mL from the starting inoculum ([Souli et al., 2009]). Studies were performed in triplicate.
(§6) The RIF concentration used for all strains was 2 mg/L. RIF, filled circles; CST, filled squares; combination of both antimicrobials, filled triangles.

[11] = test system: K. pneumoniae OXA-48 plus CTX-M-15 producer; type: cell-based, Klebsiella pneumoniae; settings: colistin 0.5 mg/L (MIC), rifampin 2 mg/L, alone or combined; inoculum 1 × 10^6 cfu/mL, 37°C, samples 0-24 h; three experiments
Procedure: as §5, §6

[12] = test system: K. pneumoniae VIM-1 producer; type: cell-based, Klebsiella pneumoniae; settings: colistin 0.5 mg/L (MIC), rifampin 2 mg/L, alone or combined; inoculum 1 × 10^6 cfu/mL, 37°C, samples 0-24 h; three experiments
Procedure: as §5, §6

[13] = test system: K. pneumoniae KPC-3 strain; type: in vivo, C57BL/6 mice infected with Klebsiella pneumoniae; settings: CMS 20 mg/kg/8 h ip, rifampin 25 mg/kg/6 h ip, alone or combined
Procedure: as §3, §4

[14] = mouse, in vivo
Procedure: as §7, §8

[15] = agar dilution, read-out: MIC (agar dilution method)
[16] = supplement table, strain KPc29, EUCAST 2016 breakpoints, fosfomycin by agar dilution
[17] = 72 h, from 4 h post-inoculation
[18] = CMS 20 mg/kg/8 h ip, rifampin 25 mg/kg/6 h ip, alone or combined
[19] = CMS 20 mg/kg/8 h ip, rifampin 25 mg/kg/6 h ip, alone or combined, from 4 h post-infection, 72 h
[20] = broth microdilution, read-out: MIC

Compound | SIR, classification according to EUCAST definitions [1] | SIR, classification according to EUCAST definitions [2, 16] | SIR, classification according to EUCAST definitions [3] | SIR, classification according to EUCAST definitions [4] | Mice mortality (%) [6] [%] | Log10 cfu/g spleen (mean ±SD) [6] [log10 cfu/g] | Bacteremia (%) [6] [%] | Mice mortality (%) [7, 17] [%] | Bacteremia (%) [7] [%] | Bacteremia (%) [8, 18] [%] | Log10 cfu/g lung (mean ±SD) [8, 19] | Mice mortality (%) [9] [%] | Log10 cfu/g spleen (mean ±SD) [9] | Bacteremia (%) [9] [%] | MIC [1, 20] [mg/L] | MIC [3, 20] [mg/L] | MIC [4, 20] [mg/L] | MIC [2] [mg/L] | also measured
C[C@@H]1O[C@@H]1P(=O)(O)O [Fosfomycin] | S | R | S | S | – | – | – | – | – | – | – | – | – | – | – | – | – | – | MIC [1, 15]: 32 mg/L (≈ 232 µM); MIC ([2]; supplement table, strain KPc29, agar dilution, read-out: MIC (agar dilution method)): 64 mg/L (≈ 464 µM); MIC [3, 15]: 8 mg/L (≈ 57.9 µM); MIC [4, 15]: 8 mg/L (≈ 57.9 µM)
CO[C@H]1/C=C/O[C@@]2(C)Oc3c(C)c(O)c4c(O)c(c(/C=N/N5CCN(C)CC5)c(O)c4c3C2=O)NC(=O)/C(C)=C\C=C\[C@H](C)[C@H](O)[C@@H](C)[C@@H](O)[C@@H](C)[C@H](OC(C)=O)[C@@H]1C [Rifampin, rifampin] | – | – | – | – | 100 | 9.68 ± 0.09 | 100 | 100 | 100 | 20 | 3.07 ± 1.63^a log10 cfu/g | 100 | 8.24 ± 0.76^c log10 cfu/g | 100 | – | – | – | – | AUC0-24, free drug in serum (fAUC0-24) ([5]; free (fCST, fRIF)): 44.14 mg⋅h/L; Cmax, free drug in serum ([5]; free (fCST, fRIF), sets of three mice): 2.90 µg/mL; AUC0-24, total drug in serum ([5]; total (tCST, tRIF)): 1103.58 mg⋅h/L; Cmax, total drug in serum ([5]; total (tCST, tRIF), sets of three mice): 72.58 µg/mL; Bactericidal activity in time-kill curves (decrease ≥ 3 log10 cfu/mL from the starting inoculum) [10]: did not show bactericidal activity; Bactericidal activity in time-kill curves (decrease ≥ 3 log10 cfu/mL from the starting inoculum) [11]: did not show bactericidal activity; Bactericidal activity in time-kill curves (decrease ≥ 3 log10 cfu/mL from the starting inoculum) [12]: did not show bactericidal activity
colistimethate sodium [CMS] | – | – | – | – | 100 | 9.54 ± 0.34 | 100 | 93.33 | 100 | 40 | 5.14 ± 3.78 log10 cfu/g | 100 | 9.52 ± 0.55 log10 cfu/g | 100 | – | – | – | – | Log10 cfu/g spleen (mean ±SD) ([7]; ip MLD 8.97 log10 cfu/mL, from 4 h post-inoculation, 72 h, at death or 72 h, SD): 8.60 ± 0.30 log10 cfu/g; Mice mortality (%) [13, 17]: 75%; Log10 cfu/g spleen (mean ±SD) ([13]; ip MLD 8.38 log10 cfu/mL, from 4 h post-inoculation, 72 h, at death or 72 h, SD): 9.19 ± 1.85 log10 cfu/g; Bacteremia (%) ([13]; qualitative blood cultures at death or 72 h): 100%; t1/2, free drug in serum [14]: 3.82 h; t1/2, total drug in serum [14]: 3.82 h; Mice mortality (%) ([8]; 72 h, CMS 20 mg/kg/8 h ip, rifampin 25 mg/kg/6 h ip, alone or combined, from 4 h post-infection): 26.70%; Bacterial lung decrease ([8]; CMS monotherapy 20 mg/kg/8 h ip vs control group, not significant): 2.91 log10 cfu/g
CNC(C)C1CCC(N)C(OC2C(N)CC(N)C(OC3OCC(C)(O)C(NC)C3O)C2O)O1 (stereo not drawn) [Gentamicin] | S | S | I | S | – | – | – | – | – | – | – | – | – | – | 0.5 (≈ 1.05 µM) | 4 (≈ 8.38 µM) | 2 (≈ 4.19 µM) | – | –
NCC[C@H](O)C(=O)N[C@@H]1C[C@H](N)[C@@H](O[C@H]2O[C@H](CN)[C@@H](O)[C@H](O)[C@H]2O)[C@H](O)[C@H]1O[C@H]1O[C@H](CO)[C@@H](O)[C@H](N)[C@H]1O [Amikacin] | S | – | S | S | – | – | – | – | – | – | – | – | – | – | 1 (≈ 1.71 µM) | 1 (≈ 1.71 µM) | 4 (≈ 6.83 µM) | > 32 | SIR, classification according to EUCAST definitions [2]: R
C[C@@H](O)[C@H]1C(=O)N2C(C(=O)O)=C(S[C@@H]3CN[C@H](C(=O)N(C)C)C3)[C@H](C)[C@H]12 [Meropenem] | S | R | S | R | – | – | – | – | – | – | – | – | – | – | 2 (≈ 5.22 µM) | 2 (≈ 5.22 µM) | 16 (≈ 41.7 µM) | > 32 | –
